This is an account of results in US20100093706A1, “MULTIMEDIATOR TRANSPORTER INHIBITORS FOR USE IN TREATMENT OF CENTRAL NERVOUS SYSTEM DISORDERS” (priority 2006, published 2010).

The Vd is a proportionality between amount in the body and measured concentration, not a real space. Usually half-life stands for how long it takes for the measured level to halve. Broadly, the bioavailability is the share of a dose that reaches the circulation, judged against a reference dose that is usually intravenous. A lower bioavailability goes with little systemic uptake. The IC50 is the concentration that gives 50% inhibition.

In one data set the test system is rat. The data set is described as follows: acute single-dose toxicology in rat. It is filed as in vivo. As for the experimental part: An in vivo evaluation was carried out to determine the maximum tolerated dose of numerous test compounds in rat. The compounds were administered i.v., and the animals were then observed for 72 hours.
Briefly, experimental rats, in groups of 5 animals, were administered with various doses of respective inhibitors (e.g. 30, 90, 120, and 200 mg/kg), and the observed toxicological effects were recorded.

A further data set concerns the target DAT (r) (Rattus norvegicus, UniProt P23977). Briefly: in vitro functional uptake, rat DAT. It counts as cell-based.
A further data set can be described thus: in vivo. The conditions noted are these: rat.
Another data set addresses 5-HT (Homo sapiens, UniProt P31645). Briefly: cell-based. The conditions noted are these: own compounds tested as racemic mixtures of enriched diastereomers.
For another data set, the target named is sigma-1 (σ1) receptor (Homo sapiens, UniProt Q99720). The data set is described as follows: in vitro selectivity panel, sigma-1 receptor. It is filed as binding. As for the experimental part: (§1) The in vitro selectivity profile of two representative subject compounds, (3) and (1), are also tested against a panel of other receptors, including the M1 receptor, Histamine H1 receptor, sigma-1 (σ1) receptor, β1-adrenergic receptor, and dopamine D2 receptor. Representative results are listed below in Table III: […]
sigma-1 (σ1) receptor, sequence (Q99720 whole entry): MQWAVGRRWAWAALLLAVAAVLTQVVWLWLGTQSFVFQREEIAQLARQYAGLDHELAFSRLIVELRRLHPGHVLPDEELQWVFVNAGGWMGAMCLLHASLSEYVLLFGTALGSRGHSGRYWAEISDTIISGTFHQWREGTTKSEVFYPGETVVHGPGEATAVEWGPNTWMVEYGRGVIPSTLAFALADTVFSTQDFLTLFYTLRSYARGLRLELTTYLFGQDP

The target in a further data set is β1-adrenergic receptor (Homo sapiens, UniProt P08588). The data set is described as follows: in vitro selectivity panel, β1-adrenergic receptor. It is filed as binding. As for the experimental part:
as §1

For a further data set, the target named is Histamine H1 receptor (Homo sapiens, UniProt P35367). The data set is described as follows: in vitro selectivity panel, Histamine H1 receptor. It counts as binding. As for the experimental part: as §1
Histamine H1 receptor, sequence (P35367 whole entry): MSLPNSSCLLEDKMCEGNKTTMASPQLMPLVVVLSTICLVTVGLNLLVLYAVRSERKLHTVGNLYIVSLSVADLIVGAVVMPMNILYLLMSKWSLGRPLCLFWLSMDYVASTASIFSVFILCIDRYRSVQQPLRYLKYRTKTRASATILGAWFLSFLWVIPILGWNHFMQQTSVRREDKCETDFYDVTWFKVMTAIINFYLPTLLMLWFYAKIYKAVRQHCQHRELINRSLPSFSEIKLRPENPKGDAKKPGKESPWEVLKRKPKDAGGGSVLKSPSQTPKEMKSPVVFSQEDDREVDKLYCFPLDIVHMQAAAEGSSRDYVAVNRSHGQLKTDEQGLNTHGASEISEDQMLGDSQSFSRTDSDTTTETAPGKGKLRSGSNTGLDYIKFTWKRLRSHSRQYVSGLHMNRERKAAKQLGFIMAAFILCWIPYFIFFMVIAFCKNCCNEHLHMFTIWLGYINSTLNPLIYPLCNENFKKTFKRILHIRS
Data set [1] has as its target NET (norepinephrine transporter or SLC6A2) (Homo sapiens, UniProt P23975). Briefly: cell-based. The conditions noted are these: own compounds tested as racemic mixtures of enriched diastereomers.
A further data set deals with Sprague-Dawley rats. The data set is described as follows: 7 day multidose oral dosing toxicology study. It counts as in vivo, rat. The text has this: The representative results are listed below in Table VI.
A further data set has as its target T1, NET (h) (Homo sapiens, UniProt P23975).
T1 construct: expressed in transfected cells; host or cells: MDCK
Briefly: cell-based. It is filed as cell-based. The conditions noted are these: human; nM; read-out: NET (h) in vitro functional uptake. How it is done: (§2) Functional activity of the compounds was determined in vitro in cellular assays using recombinant human cell lines.

A further data set concerns the target T2, DAT (h) (Homo sapiens, UniProt Q01959).
T2 construct: expressed in transfected cells
Briefly: cell-based. It counts as cell-based. Particulars: human; nM; read-out: DAT (h) in vitro functional uptake. As for the experimental part:
as §2

A further data set concerns the target T3, M1 receptor (Homo sapiens, UniProt P11229).
T3 sequence (P11229 1-460): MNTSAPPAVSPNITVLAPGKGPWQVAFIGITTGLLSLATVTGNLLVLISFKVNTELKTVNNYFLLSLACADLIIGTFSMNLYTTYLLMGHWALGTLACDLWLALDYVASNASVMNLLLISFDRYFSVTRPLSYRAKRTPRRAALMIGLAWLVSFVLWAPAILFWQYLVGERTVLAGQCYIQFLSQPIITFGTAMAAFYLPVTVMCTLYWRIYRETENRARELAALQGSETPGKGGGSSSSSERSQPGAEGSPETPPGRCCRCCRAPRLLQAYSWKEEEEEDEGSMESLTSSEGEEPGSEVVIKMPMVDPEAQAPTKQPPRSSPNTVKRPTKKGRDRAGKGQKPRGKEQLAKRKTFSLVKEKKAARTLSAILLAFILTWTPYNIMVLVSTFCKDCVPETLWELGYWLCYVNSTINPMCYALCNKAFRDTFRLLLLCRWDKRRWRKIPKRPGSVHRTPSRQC
The data set is described as follows: in vitro selectivity panel, M1 receptor. It is filed as binding. As for the experimental part:
as §1

A further data set addresses dopamine D2 receptor (Homo sapiens, UniProt P14416). Briefly: in vitro selectivity panel, dopamine D2 receptor. It is filed as binding. As for the experimental part:
as §1

β1-adrenergic receptor, sequence (P08588 whole entry): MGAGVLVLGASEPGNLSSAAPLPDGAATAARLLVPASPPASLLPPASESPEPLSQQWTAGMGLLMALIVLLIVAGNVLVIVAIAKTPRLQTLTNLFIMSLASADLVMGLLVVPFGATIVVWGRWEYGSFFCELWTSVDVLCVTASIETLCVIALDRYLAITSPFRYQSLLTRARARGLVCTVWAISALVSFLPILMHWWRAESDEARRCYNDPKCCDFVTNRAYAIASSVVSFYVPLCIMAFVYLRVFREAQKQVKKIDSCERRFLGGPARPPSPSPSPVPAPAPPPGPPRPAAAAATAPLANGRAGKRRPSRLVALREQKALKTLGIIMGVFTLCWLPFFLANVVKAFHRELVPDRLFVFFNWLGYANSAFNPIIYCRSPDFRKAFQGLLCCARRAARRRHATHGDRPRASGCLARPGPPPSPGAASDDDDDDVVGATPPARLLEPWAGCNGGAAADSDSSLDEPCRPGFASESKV
T2 sequence (Q01959 whole entry): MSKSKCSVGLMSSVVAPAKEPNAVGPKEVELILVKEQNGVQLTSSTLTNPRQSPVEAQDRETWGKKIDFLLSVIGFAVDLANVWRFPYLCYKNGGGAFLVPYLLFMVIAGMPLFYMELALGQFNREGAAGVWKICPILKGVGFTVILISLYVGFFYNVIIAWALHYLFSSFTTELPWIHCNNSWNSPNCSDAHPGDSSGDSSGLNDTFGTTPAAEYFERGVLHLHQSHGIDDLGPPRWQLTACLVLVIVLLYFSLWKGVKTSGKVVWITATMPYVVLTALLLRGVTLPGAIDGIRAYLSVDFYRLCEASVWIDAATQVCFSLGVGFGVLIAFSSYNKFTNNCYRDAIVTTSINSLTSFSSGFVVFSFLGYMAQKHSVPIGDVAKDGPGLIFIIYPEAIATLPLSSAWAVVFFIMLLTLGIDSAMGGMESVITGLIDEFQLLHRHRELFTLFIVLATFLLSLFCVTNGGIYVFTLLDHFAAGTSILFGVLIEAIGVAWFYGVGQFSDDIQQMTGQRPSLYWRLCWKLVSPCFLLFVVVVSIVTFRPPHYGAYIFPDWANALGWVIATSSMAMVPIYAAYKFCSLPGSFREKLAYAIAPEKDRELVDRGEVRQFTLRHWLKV
dopamine D2 receptor, sequence (P14416 whole entry): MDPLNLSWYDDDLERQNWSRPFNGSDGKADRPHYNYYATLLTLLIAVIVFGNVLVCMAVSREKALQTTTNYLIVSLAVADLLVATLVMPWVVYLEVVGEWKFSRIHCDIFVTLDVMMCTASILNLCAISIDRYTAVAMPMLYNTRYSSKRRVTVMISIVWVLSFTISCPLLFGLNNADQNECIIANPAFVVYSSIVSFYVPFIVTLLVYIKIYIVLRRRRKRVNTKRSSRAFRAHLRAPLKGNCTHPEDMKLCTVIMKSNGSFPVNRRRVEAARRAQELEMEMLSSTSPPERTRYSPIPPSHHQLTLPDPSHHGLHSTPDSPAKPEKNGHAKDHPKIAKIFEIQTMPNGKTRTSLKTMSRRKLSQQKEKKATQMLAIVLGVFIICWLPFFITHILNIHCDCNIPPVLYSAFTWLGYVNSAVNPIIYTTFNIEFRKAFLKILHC
T1 sequence (P23975 whole entry): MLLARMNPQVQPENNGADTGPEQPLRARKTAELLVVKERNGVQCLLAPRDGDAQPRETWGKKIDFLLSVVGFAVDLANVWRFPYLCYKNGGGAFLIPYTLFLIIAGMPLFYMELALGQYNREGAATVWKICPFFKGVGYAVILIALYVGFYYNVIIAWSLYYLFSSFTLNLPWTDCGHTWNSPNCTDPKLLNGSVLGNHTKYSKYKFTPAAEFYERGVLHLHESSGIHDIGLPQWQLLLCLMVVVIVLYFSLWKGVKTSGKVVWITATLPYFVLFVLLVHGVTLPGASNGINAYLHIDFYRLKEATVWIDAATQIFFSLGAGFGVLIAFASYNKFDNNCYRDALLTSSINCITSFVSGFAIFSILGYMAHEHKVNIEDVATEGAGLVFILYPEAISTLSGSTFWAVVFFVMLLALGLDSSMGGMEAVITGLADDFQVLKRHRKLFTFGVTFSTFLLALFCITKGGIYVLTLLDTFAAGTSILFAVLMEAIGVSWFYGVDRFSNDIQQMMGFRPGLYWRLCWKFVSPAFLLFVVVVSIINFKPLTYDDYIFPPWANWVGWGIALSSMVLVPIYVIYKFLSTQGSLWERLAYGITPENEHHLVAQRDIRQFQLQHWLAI
NET (norepinephrine transporter or SLC6A2), sequence (P23975 whole entry): as above
DAT (r), sequence (P23977 whole entry): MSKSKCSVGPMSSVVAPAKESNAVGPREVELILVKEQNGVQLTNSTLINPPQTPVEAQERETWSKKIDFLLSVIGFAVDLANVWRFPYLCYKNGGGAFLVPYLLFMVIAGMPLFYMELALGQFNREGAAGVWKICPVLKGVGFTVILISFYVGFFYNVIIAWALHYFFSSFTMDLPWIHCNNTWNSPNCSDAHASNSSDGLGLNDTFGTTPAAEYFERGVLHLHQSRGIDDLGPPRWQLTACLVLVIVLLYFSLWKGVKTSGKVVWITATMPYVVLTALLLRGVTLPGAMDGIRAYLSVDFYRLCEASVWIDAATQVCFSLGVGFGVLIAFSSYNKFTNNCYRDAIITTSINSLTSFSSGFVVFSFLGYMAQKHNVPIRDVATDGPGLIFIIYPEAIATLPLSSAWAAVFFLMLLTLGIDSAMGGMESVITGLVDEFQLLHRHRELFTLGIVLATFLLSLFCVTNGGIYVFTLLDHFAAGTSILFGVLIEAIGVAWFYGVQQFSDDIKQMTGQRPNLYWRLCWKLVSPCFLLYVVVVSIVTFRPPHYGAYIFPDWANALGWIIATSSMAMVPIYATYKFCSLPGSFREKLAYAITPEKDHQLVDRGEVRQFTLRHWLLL
5-HT, sequence (P31645 whole entry): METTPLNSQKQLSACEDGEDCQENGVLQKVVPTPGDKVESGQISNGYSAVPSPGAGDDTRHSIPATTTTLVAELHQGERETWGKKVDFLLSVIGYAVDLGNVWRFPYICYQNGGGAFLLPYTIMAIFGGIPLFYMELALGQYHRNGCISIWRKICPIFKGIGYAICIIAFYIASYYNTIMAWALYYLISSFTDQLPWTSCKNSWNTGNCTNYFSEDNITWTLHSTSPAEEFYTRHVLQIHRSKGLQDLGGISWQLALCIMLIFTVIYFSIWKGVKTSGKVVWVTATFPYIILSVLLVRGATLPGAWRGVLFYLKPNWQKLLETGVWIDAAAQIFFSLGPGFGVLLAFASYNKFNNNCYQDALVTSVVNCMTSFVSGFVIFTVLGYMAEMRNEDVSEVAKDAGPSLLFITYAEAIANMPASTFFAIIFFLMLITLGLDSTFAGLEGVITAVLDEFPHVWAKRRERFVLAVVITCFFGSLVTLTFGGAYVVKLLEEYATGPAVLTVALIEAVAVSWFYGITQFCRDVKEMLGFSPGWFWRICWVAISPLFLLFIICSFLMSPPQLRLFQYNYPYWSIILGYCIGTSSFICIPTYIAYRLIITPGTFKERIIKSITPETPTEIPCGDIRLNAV

On to `CC1CCN(CC2(c3ccc(Cl)cc3)CCC2)CC1COc1ccc(C(F)(F)F)cc1` (stereo not drawn) [(1)], for which the “acute single dose toxicology, observed symptoms” value in the data set on rat (rat (n = 5), 200 mg/kg, i.v., observed 72 hours) is “decreased grip strength, and slight depression”; with rat (rat, doses below 120 mg/kg) it was “no significant observed symptoms”. In addition, the EC50 came out at 80 nM on DAT (r), 1000 nM on NET (h) and 1 nM at DAT (h). Moreover, the Vd in “in vivo” was 6 L/kg. The same compound gave a half-life in the data set “in vivo” (iv) of 3.33 h. Besides, in “in vivo” (po), the bioavailability came to 40%. For the same compound, the IC50 on 5-HT amounted to 1200 nM; in [1], 175 nM. On sigma-1 (σ1) receptor, the “Sigma σ1 (nM)h” value is 5000 nM. For the same compound, the “β1-adrenergic (nM)h” value at β1-adrenergic receptor turned out to be 5000 nM. For the same compound, the “Histamine H1 (nM)h” value on Histamine H1 receptor is 5000 nM. Further, the “7 day multidose oral toxicology, symptoms” value with Sprague-Dawley rats (Sprague-Dawley rats n = 6 (3M/3F), oral 100 mg/kg/day, 100 mg/kg/day) is “did not display any significant symptoms”. Besides, the “7 day multidose oral toxicology, self-mutilation (number of animals)” value in the data set with Sprague-Dawley rats (n = 6, oral 200 mg/kg/day) was 1 self-mutilation; in the data set with Sprague-Dawley rats (n = 6, oral 400 mg/kg/day), 3 self-mutilation. On M1 receptor, the “M1 (nM)h” value is on record as 5000 nM. In addition, the “D2 (nM)h” value on dopamine D2 receptor is given as 1000 nM.
